In patent publication US20090238808A1, “Process for the identification of novel enzyme interacting compounds” (priority 2005, published 2009):

Experiments:
Assay in all cases: Kinobeads elution with test compound, mouse brain lysate, MS
Type in all cases: binding
Conditions in all cases: kinase released from kinobeads by specific elution
EphB2 = molecular target: T1, EphB2 (Mus musculus, UniProt P54763)
T1 sequence (P54763 19-986): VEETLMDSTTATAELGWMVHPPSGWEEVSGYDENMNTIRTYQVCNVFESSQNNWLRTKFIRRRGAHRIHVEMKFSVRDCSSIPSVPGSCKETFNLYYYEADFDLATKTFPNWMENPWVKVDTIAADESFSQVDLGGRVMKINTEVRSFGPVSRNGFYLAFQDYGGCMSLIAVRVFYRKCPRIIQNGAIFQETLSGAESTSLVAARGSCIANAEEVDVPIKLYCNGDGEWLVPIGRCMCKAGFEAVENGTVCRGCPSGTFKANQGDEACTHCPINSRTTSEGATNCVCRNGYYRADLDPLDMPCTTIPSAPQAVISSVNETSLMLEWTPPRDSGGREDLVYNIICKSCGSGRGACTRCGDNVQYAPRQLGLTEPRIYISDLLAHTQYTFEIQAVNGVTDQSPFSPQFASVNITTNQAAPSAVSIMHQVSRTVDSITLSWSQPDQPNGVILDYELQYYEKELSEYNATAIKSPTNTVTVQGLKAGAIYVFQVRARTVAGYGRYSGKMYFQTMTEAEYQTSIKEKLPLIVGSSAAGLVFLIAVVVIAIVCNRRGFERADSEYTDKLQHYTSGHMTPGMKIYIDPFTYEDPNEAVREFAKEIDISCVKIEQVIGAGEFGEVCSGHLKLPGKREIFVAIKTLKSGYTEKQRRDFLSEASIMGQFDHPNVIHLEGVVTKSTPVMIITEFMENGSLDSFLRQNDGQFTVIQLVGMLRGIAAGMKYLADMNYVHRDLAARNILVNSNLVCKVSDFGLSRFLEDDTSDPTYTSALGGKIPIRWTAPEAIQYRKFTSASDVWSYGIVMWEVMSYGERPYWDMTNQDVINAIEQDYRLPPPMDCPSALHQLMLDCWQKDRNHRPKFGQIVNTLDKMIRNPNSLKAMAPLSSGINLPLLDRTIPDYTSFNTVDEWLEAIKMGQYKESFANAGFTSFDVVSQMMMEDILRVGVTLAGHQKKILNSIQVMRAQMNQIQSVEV
How it was run: (§1)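 Kinobeads preloaded with mouse brain lysate under near-physiological buffer conditions were washed gently, then eluted for 30 min at 4° C with elution buffer holding 1.0 mM test compound; DMSO or DMF (2%) buffer served as control. Released proteins were reduced, alkylated, gel-separated and identified by mass spectrometry.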

Erk1ps5 = molecular target: T2, Erk1ps5 (Mus musculus, UniProt Q63844)
T2 construct: […]; from tissue; host or cells: mouse brain
How it was run: as §1

RSK3 (Mus musculus) = test system: T3, RSK3 (Mus musculus)
T3 construct: from tissue; host or cells: mouse brain
How it was run: as §1

p38b = molecular target: T4, p38b (Mus musculus, UniProt Q9WUI1)
T4 construct: from tissue; host or cells: mouse brain
How it was run: as §1

FER = FER (Mus musculus, UniProt P70451)
How it was run: as §1

TRKB = molecular target: T5, TRKB (Mus musculus, UniProt P15209)
T5 construct: from tissue; host or cells: mouse brain
Text: This example illustrates competitive elution of proteins bound to kinobeads with non-modified test compounds (see particularly the fourth aspect of the invention).
The kinobeads were contacted with mouse brain lysate under conditions that allow the binding of the proteins in the lysate to the ligands. The binding conditions were close to physiological by choosing suitable buffer conditions preserving the function of the proteins. After removing non-captured proteins through a gentle washing procedure the bound proteins were contacted with a test compound for protein elution.
Various test compounds (see section 2.7) were used to release bound proteins following these steps:
1. Resuspend beads with bound proteins (section 2.4) in 1×DP buffer/0.2% NP-40 as 1:3 slurry (volume/volume). 2. Transfer 20 μl the 1:3 slurry into MoBiTech columns (equivalent to 5 μl of beads). 3. Place the column into an Eppendorf tube and centrifuge it for 15 seconds at 800 rpm at 4° C. Close columns with lower lid. 4. Add 10 μl elution buffer containing 1.0 mM of the test compound (concentration ranges of 0.1 to 1.0 mM are suitable). As a control use elution buffer containing 2% DMSO or 2% DMF dependent on the solvent used for dissolving the test compound. Close column with upper lid. 5. Incubate for 30 minutes at 4° C. in an Eppendorf incubator at 700 rpm. 6. […] To harvest the eluate centrifuge 2 minutes at 2.000 rpm in table top centrifuge at room temperature. The typical volume of the eluate is approximately 15 μl. 7. Add 5 μl 4× NuPAGE SDS Sample Buffer (Invitrogen, NP0007) containing 100 mM DTT (DTT has to be added just prior to use). 8. Incubate for 30 minutes at 50° C. 9. Add 1/10 volume of 200 mg/ml iodoacetamide, incubate for 30 min at room temperature, protect from light. This reaction leads to the alkylation of cysteines for mass spectrometry. 10. Before loading samples onto the gel, centrifuge samples for 5 minutes at 15.000 rpm in order to remove precipitates. 11. […] 2.6 Preparation of Stock Solutions used in this Protocol
Search criteria varied depending on which mass spectrometer was used for the analysis.

T5 sequence (P15209 32-821): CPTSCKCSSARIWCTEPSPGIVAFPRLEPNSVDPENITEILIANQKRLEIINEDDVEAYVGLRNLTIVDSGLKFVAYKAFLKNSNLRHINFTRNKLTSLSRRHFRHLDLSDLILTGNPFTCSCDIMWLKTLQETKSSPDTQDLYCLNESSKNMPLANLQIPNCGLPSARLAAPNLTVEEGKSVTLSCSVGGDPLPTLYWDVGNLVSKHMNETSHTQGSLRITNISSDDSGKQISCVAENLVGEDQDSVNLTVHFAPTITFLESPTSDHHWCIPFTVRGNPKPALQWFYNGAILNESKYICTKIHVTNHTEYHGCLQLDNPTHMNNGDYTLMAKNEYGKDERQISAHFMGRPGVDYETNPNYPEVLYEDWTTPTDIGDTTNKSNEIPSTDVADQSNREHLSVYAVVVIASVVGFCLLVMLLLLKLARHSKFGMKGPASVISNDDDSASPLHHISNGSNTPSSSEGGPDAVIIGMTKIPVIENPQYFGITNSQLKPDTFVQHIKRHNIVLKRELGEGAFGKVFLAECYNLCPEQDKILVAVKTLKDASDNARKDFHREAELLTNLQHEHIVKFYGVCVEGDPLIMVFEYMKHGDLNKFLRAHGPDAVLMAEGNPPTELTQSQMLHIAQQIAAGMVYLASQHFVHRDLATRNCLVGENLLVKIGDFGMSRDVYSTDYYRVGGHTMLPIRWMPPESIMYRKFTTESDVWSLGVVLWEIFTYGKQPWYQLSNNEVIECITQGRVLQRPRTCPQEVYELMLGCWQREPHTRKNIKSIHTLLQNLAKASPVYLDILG
T4 sequence (Q9WUI1 whole entry): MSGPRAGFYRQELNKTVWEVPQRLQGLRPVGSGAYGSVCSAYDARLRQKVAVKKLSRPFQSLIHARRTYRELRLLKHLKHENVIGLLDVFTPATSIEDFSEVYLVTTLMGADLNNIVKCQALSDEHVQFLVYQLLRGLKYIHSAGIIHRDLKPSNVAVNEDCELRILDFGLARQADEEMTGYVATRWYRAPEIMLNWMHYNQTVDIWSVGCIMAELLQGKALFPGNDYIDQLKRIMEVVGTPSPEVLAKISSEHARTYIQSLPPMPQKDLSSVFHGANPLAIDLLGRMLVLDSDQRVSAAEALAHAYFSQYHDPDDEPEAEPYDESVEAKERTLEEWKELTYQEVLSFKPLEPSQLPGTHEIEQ
Chain of FER (P70451 whole entry): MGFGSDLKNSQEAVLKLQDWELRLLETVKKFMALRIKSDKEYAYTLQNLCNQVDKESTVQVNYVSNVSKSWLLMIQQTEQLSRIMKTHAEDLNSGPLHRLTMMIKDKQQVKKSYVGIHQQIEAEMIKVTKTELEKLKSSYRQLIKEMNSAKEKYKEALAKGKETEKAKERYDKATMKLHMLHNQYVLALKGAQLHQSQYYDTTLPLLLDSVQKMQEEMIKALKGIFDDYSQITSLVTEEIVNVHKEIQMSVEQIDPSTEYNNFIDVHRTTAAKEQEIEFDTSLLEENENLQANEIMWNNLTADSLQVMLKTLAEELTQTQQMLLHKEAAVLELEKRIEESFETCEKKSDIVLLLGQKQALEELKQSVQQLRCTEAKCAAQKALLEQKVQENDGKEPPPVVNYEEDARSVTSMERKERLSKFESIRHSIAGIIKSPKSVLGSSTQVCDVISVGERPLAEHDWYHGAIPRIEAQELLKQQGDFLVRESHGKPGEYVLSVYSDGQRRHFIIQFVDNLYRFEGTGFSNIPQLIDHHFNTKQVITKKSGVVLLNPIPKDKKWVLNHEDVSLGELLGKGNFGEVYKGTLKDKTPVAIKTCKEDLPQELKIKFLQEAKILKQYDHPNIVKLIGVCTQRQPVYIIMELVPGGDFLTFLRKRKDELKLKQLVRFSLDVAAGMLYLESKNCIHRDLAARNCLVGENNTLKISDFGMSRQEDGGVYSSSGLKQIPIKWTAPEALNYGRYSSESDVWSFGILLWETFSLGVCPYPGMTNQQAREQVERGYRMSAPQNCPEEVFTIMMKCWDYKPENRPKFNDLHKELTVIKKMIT
T2 sequence (Q63844 2-380 limits assumed): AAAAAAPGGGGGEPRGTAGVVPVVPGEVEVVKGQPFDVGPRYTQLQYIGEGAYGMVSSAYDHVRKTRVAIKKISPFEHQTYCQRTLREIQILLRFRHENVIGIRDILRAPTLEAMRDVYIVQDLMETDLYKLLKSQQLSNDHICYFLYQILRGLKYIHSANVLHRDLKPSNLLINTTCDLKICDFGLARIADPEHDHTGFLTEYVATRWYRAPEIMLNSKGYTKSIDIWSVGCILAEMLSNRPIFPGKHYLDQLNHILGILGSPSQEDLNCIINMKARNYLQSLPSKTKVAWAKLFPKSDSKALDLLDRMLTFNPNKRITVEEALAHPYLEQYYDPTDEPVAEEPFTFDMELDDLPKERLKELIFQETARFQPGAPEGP
T3 sequence (P18653 whole entry): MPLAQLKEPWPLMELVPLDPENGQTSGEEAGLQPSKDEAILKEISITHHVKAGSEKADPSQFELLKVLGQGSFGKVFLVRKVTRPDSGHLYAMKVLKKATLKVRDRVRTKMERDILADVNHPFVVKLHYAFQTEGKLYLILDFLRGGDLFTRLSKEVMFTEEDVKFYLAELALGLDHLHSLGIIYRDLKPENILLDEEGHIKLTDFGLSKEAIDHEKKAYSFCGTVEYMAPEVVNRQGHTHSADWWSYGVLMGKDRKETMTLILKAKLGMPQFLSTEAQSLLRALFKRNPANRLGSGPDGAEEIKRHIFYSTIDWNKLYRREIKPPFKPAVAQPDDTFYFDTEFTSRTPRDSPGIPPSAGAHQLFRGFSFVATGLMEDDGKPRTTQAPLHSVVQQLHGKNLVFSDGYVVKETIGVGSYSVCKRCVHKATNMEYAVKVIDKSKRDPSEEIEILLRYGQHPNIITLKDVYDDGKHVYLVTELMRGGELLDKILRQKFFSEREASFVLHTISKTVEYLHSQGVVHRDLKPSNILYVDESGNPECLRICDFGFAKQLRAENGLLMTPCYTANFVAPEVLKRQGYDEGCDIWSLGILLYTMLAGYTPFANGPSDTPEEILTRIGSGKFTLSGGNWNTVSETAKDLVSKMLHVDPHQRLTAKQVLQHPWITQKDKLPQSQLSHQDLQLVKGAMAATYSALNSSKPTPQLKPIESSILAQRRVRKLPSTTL

Cn1c(=O)c(-c2c(Cl)cccc2Cl)cc2cnc(Nc3ccc(CN)cc3)cc21 [CZC7324]
mass spectrometry score, EphB2 (EphB2): 1004
number of identified peptides, EphB2 (EphB2): 22
mass spectrometry score, Erk1ps5 (Erk1ps5): 557
number of identified peptides, Erk1ps5 (Erk1ps5): 77
mass spectrometry score, RSK3 (RSK3 (Mus musculus)): 312
mass spectrometry score, p38b (p38b): 60
number of identified peptides, p38b (p38b): 1
mass spectrometry score, FER (FER): 388
number of identified peptides, FER (FER): 11

NCc1ccc(Nc2ncc(F)c(Nc3ccccc3)n2)cc1 [CZC00008004]
mass spectrometry score, EphB2 (EphB2): 149
number of identified peptides, EphB2 (EphB2): 5
mass spectrometry score, Erk1ps5 (Erk1ps5): 386
number of identified peptides, Erk1ps5 (Erk1ps5): 26
mass spectrometry score, FER (FER): 100
number of identified peptides, FER (FER): 2

CNC1CC2OC(C)(C1OC)n1c3ccccc3c3c4c(c5c6ccccc6n2c5c31)C(=O)NC4 (centres unmarked) [CZC9280]
mass spectrometry score, EphB2 (EphB2): 114
number of identified peptides, EphB2 (EphB2): 4
mass spectrometry score, Erk1ps5 (Erk1ps5): 71
number of identified peptides, Erk1ps5 (Erk1ps5): 2
mass spectrometry score, RSK3 (RSK3 (Mus musculus)): 721
mass spectrometry score, FER (FER): 818
number of identified peptides, FER (FER): 21
number of identified peptides, TRKB (TRKB): 4

CC(C)[C@H](CO)Nc1nc(Nc2ccc(C(=O)O)c(Cl)c2)c2ncn(C(C)C)c2n1 [Purvalanol B, reference compound]
mass spectrometry score, EphB2 (EphB2): 1334
number of identified peptides, EphB2 (EphB2): 30
mass spectrometry score, Erk1ps5 (Erk1ps5): 749
number of identified peptides, Erk1ps5 (Erk1ps5): 48
mass spectrometry score, RSK3 (RSK3 (Mus musculus)): 401
mass spectrometry score, FER (FER): 322
number of identified peptides, FER (FER): 8
mass spectrometry score, TRKB (TRKB): 207
number of identified peptides, TRKB (TRKB): 4

CCCCCCCCCCCCOS(=O)(=O)[O-].[Na+] [SDS]
mass spectrometry score, EphB2 (EphB2): 437
number of identified peptides, EphB2 (EphB2): 19
mass spectrometry score, Erk1ps5 (Erk1ps5): 239
number of identified peptides, Erk1ps5 (Erk1ps5): 8
mass spectrometry score, RSK3 (RSK3 (Mus musculus)): 107
mass spectrometry score, p38b (p38b): 95
number of identified peptides, p38b (p38b): 3
mass spectrometry score, FER (FER): 275
number of identified peptides, FER (FER): 11
